Results taken from US20250235423A1, “USES OF AMINO ACID-CHELATED ZINC, INCLUDING IMMUNE REGULATION AND TREATMENT OF AUTOIMMUNE DISEASE” (FAAC Bio Inc., priority 2024, published 2025).

Key:
CIA rat [1] = test: Arthritis severity score in collagen-induced arthritis (CIA) animal model; assay type: in vivo, Lewis rats; design: Arthritis severity score: scale not given here; conditions: CIA rats; for Progression of arthritis severity after Day 17: compared to the CIA group
Experimental: (§1) Lewis rats were bred under the condition with a temperature of 21° C. to 25° C., a humidity level of 40% to 70%, and a lighting period of 12 hours (7 a.m. to 7 p.m.). The rats had free access to the feed. All the rats were monitored for at least 6 days to ensure their health to prepare a collagen-induced arthritis (CIA) animal model.
(§2) A collagen emulsion was prepared by evenly mixing collagen and IFA at a volume ratio of 1:1 using a homogenizer in a cold water bath. On Day 1, 200 μL of the collagen emulsion was injected subcutaneously at the base of the rat's tail, followed by a booster injection of 100 μL of the collagen emulsion at a different site on the base of the tail on Day 8. All the rats successfully developed CIA by Day 17 (hereinafter referred to as “CIA rat”).
(§3) As described in Preparation example C, all the rats successfully developed CIA by Day 17. Therefore, the CIA rats were randomly divided into four groups from Day 17 to administer the following solutions until the rats were sacrificed on Day 24, wherein the healthy rats not to induce arthritis were served as the control group: • (1) Control group (five healthy rats): 2 mL of PBS; • (2) CIA group (five CIA rats): 2 mL of PBS; • (3) MTX group (three CIA rats): 1 mg of MTX per kilogram of rat, dissolved in 2 mL of PBS; • (4) CMC-Zn group (five CIA rats): CMC-Zn at a zinc concentration of 0.075 mg, dissolved in 2 mL of PBS; and • (5) Modified CMC-Zn group (five CIA rats): modified CMC-Zn at a zinc concentration of 0.075 mg, dissolved in 2 mL of PBS.
(§4) The rat's paws were observed and their paw volumes were measured on Days 0, 3, 7, 10, 14, 17, 21 and 24. The arthritis severity of rats was evaluated by using the qualitative scoring system of Table 3, and the paw volume was determined by the following approach in accordance with the buoyancy principle of Archimedes' law: adding an appropriate amount of water into a beaker; placing the beaker on a scale and resetting to zero; placing the rat's paw into the water and immersing it to the target depth; and recoding the reading once it had stabilized.

CIA rat [2] = test: Paw volume (average weight percentage of both paws) in collagen-induced arthritis (CIA) animal model; assay type: in vivo, Lewis rats; conditions: for Weight percentages of the rats' paws on Day 24 (FIG. 4): Day 24, compared to the untreated CIA rats (p value<0.05); for Weight percentages of the rats' paws over time (FIG. 3): after administration from Day 17, compared to the CIA group
Experimental: as §1, §2, §3, §4

[3] = test system: mouse bone marrow dendritic cells (BMDCs); test: Flow cytometry analysis of dendritic cell maturation surface markers on treated BMDCs; assay type: cell-based; conditions: for Ability to inhibit dendritic cell maturation: all zinc concentrations, directly proportional to the zinc concentration; for CD11c expression level / CD40 expression level / CD80 expression level / CD83 expression level / CD86 expression level / MHC II expression level: 48 hours
Experimental: Mice were sacrificed with carbon dioxide and immersed in 75% alcohol. After immersing for 3 minutes, the mice were removed from the alcohol and wiped. Then, the mouse limbs were fixed on a Styrofoam board. Next, the entire femur and tibia were collected by carefully cutting off the mouse skin and muscle. A filter (100 μm) was placed in a 3-cm dish and 2 ml of RPMI-1640 medium was added into the dish. Two ends of the femur were cut, and the bone marrow was collected by repeatedly washing the femur with the cell medium using a 26 G syringe until the femur appeared white. The bone marrow in the tibia was also collected by the same method. The filter was scraped by the reverse side of 1 mL tip to break up the cell clumps in the bone marrow and washed with the cell medium in the dish several times. Then, the cell medium in the dish was collected and placed into a tube to centrifuge at 1500 rpm for 3 minutes. After centrifuging, the supernatant was removed and 1 mL of RBC lysis buffer was added into the tube. After standing for 5 minutes, the tube was centrifuged at 1500 rpm for 3 minutes again. After removing the supernatant, a milky-white pellet was obtained. The pellet was re-suspended with the DC medium and the cell number of the suspension thus obtained was counted.
The cell concentration of the suspension was adjusted to 5×10^5 cells per mL. 1 mL of the suspension was added into each well of a 24-well plate. The 24-well plate was incubated at 37.5° C. and 5% CO2 for 2 days. The unattached granulocytes were removed by carefully removing the cell medium, and then, 0.5 mL of DC medium was added into each well of the 24-well plate. After incubating 3 days, the medium in each well was replaced with 0.5 mL of fresh DC medium and continuously incubated for 3 days. The 24-well plate was taken out from the incubator, and the medium in each well was carefully removed. The bottom of each well was gently pipetted with 2 mL of PBS several times. The pipetted PBS was collected into a centrifuge tube to count the number of cells and analyze the expression level of CD11c using flow cytometry.
(§5) After culturing for 48 hours, the cells and their medium in each group were collected to conduct the following analysis, respectively.
The cells obtained from (1-1) were counted and the cell concentration was adjusted with PBS to provide a cell suspension of 1×10^5 cells to 5×10^5 cells per 100 μL. 100 μL of the cell suspension was evenly mixed with 20 μL of FcR Blocking Reagent, and the mixture thus obtained was placed at 4° C. for 10 minutes. Furthermore, the antibodies of CD11c, CD40, CD80, CD83, CD86, MHC II and corresponding isotype control were added into the tubes containing the mixture, respectively. After vortexing for 1 second, the tubes were placed at room temperature in the dark for 15 minutes. Then, 300 μL of PBS was added into each tube, and after vortexing for 1 second, the tubes were centrifuged at 200×g for 5 minutes. The resulting supernatants were removed and the cells were re-suspended with 300 μL of PBS. Finally, the cell suspensions thus obtained were analyzed by flow cytometry, wherein all the cell suspension of each group were kept on ice in the dark until the analysis was conducted.

IL12P70 = test: ELISA analysis of IL12P70 in the medium of treated BMDCs; assay type: cell-based, mouse; conditions: BMDC media, all groups of the substance
Experimental: The secretion level of IL12P70 in immature DCs is very low, whereas mature DCs secret a large amount of IL12P70, allowing it an indicator of DC maturation. In this example, the expression levels of the surface markers (CD11c, CD40, CD83, CD86) on the BMDCs were analyzed using flow cytometry, and the secretion level of IL12p70 in the BMDCs' medium was measured with an ELISA kit, to observe the effects of amino acid-chelated zinc on dendritic cell maturation.
as §5
The media obtained from each group were placed into tubes, respectively, and the tubes were centrifuged (400×g) at 4° C. for 10 minutes to collect the supernatants. The IL12p70 standard was subjected to a serial dilution to provide a standard curve. The standards at various concentrations and the supernatants obtained from each group were added into a 96-well plate pre-coating with IL12p70 antibodies (100 μL per well, in duplicate). […] The absorbance value at 450 nm (OD450) in each well was detected within 3 minutes. Based on the standard curve resulted from the absorbance values of IL12p70 standards at various concentrations, the IL12p70 amounts corresponding to the absorbance values of each group were calculated as shown in Table 2.

[4] = Day 0 (before administration, which starts Day 17)
[5] = Day 17 (start of administration)
[6] = Day 21, administered from Day 17
[7] = Day 24, administered from Day 17
[8] = zinc concentration 3.27 mg/mL (low concentration)
[9] = zinc concentration 6.54 mg/mL (medium concentration)
[10] = zinc concentration 13.08 mg/mL (high concentration)

Molecule	Arthritis severity score (CIA rat [1]; [4])	Arthritis severity score (CIA rat [1]; Day 3 (before administration))	Arthritis severity score (CIA rat [1]; Day 7 (before administration))	Arthritis severity score (CIA rat [1]; Day 10 (before administration))	Arthritis severity score (CIA rat [1]; Day 14 (before administration))	Arthritis severity score (CIA rat [1]; [5])	Arthritis severity score (CIA rat [1]; [6])	Arthritis severity score (CIA rat [1]; [7])	Progression of arthritis severity after Day 17 (CIA rat [1])	Weight percentages of the rats' paws on Day 24 (FIG. 4) (CIA rat [2])	Weight percentages of the rats' paws over time (FIG. 3) (CIA rat [2])	Ability to inhibit dendritic cell maturation [3]	CD11c expression level [3, 8]	CD40 expression level [3, 8]	CD80 expression level [3, 8]	CD83 expression level [3, 8]	CD86 expression level [3, 8]	MHC II expression level [3, 8]	CD11c expression level [3, 9]	CD40 expression level [3, 9]	further results
CN(Cc1cnc2nc(N)nc(N)c2n1)c1ccc(C(=O)N[C@@H](CCC(=O)O)C(=O)O)cc1 [MTX, Methotrexate, reference compound]	0	0	0	0	0.3	3.7	3.7	3	slower progression or even reduction in arthritis severity	significantly decreased	gradually decreased	–	–	–	–	–	–	–	–	–	–
O=S(=O)([O-])[O-].[Zn+2] [Zinc sulfate, reference compound]	–	–	–	–	–	–	–	–	–	–	–	demonstrated the ability to inhibit dendritic cell maturation	87.2	16.1	46.7	12.9	49.2	16.8	85.4	11.2	CD80 expression level [3, 9]: 37.2; CD83 expression level [3, 9]: 10.4; CD86 expression level [3, 9]: 41.3; MHC II expression level [3, 9]: 11.9; CD11c expression level [3, 10]: 85.6; CD40 expression level [3, 10]: 8.5; CD80 expression level [3, 10]: 26.8; CD83 expression level [3, 10]: 6.68; CD86 expression level [3, 10]: 26; MHC II expression level [3, 10]: 8.08; IL12P70 in the media (IL12P70): not detected
glycine-chelated zinc [CMC-Zn]	0	0	0	0	0.4	3.8	4.4	4.6	slower progression or even reduction in arthritis severity	significantly decreased	gradually decreased	demonstrated the ability to inhibit dendritic cell maturation	88.3	25	39	16.1	37.9	25	87.8	13.1	Expression levels of CD80 and CD86 compared to the groups of zinc sulfate ([3]; low and medium concentration): significantly decreased; Expression levels of the markers compared to the Immature DC group ([3]; low concentration (3.27 mg/mL zinc)): even lower; CD80 expression level [3, 9]: 23.7; CD83 expression level [3, 9]: 10.3; CD86 expression level [3, 9]: 23.1; MHC II expression level [3, 9]: 14; CD11c expression level [3, 10]: 74.1; CD40 expression level [3, 10]: 6.24; CD80 expression level [3, 10]: 26.5; CD83 expression level [3, 10]: 4.38; CD86 expression level [3, 10]: 25.4; MHC II expression level [3, 10]: 6.41; IL12P70 in the media (IL12P70): not detected
